System: NBD1/3D
Assay: Aggregation analysis using differential static light scattering (DSLS), NBD1 thermal stability
Assay type: binding, Human
Conditions: ΔTagg versus DMSO control; compound at 100 μM
Description: Purified recombinant NBD1 was produced using previously described methods (A. Schmidt, J. L. Mendoza, P. J. Thomas (2011) Biochemical and Biophysical Approaches to Probe CFTR Structure (365-376) M. D. Amaral, K. Kunzelmann (eds.), Cystic Fibrosis, Methods in Molecular Biology 741, Springer Science+Business Media). The effect of test compounds on thermal stability of NBD1 was evaluated by differential static light scattering (DSLS) using the Harbinger Stargazer-384 instrument (Epiphyte Three, Toronto, Canada).
Test compounds were dissolved and diluted to desired concentrations in 100% DMSO. The compounds or DMSO controls (100 nL) were stamped into wells of a […] low volume optical plate (Corning Inc., Corning, NY) using the Echo 555 acoustic liquid handler (Labcyte Inc., San Jose, CA).
NBD1 protein was diluted to 0.2 mg/ml in S200 buffer (50 mM Tris-HCl, 150 mM NaCl, 5 mM MgCl2, 2 mM ATP, 2 mM DTT, pH7.6) containing 1% glycerol. 10 uL of protein solution was aliquoted into the 384-well plate harboring the test compounds and 10 uL mineral oil was overlayed onto the protein solution, using the epMotion robotic liquid handler (Eppendorf North America, Hauppauge, NY). After placing into the Stargazer instrument, the plate was heated at 1° C. per minute to 70° C. Images were captured from 25° C. to 70° C. every 0.5° C. At the end of the experiment run, instrument software integrated image files and analyzed data automatically. A […] regression curve was generated for each well, representing the increase in light scattering over time. A temperature of aggregation (Tagg) was calculated based on the inflection point of the curve. To better compare data across experiments the average Tagg for DMSO control wells was calculated and subtracted from values for wells containing compounds to obtain a “ΔTagg” value. These ΔTagg values reflect stabilizing efficacy of the compounds.

Structure (SMILES)	DSLS NBD1/3D Human Stability delta-T (° C.) @ 100 (μM)
Cc1c(Oc2ccc(F)c(-c3ncc(C(O)(c4cccc(CCC(=O)O)c4)C(C)C)[nH]3)c2)c(F)cc2[nH]ccc12 (stereo not shown) [Example 224, 3-(3-(1-(2-(2-fluoro-5-((6-fluoro-4-methyl-1H-indol-5-yl)oxy)phenyl)-1H-imidazol-5-yl)-1-hydroxy-2-methylpropyl)phenyl) propanoic acid]	B (B: 5-10° C.)
Cc1c(Oc2ccc(F)c(-c3nc(Cc4cccc(CCC(=O)O)c4F)c[nH]3)c2)c(F)c(F)c2[nH]ccc12 [Example 112, 3-(3-((2-(5-((6,7-difluoro-4-methyl-1H-indol-5-yl)oxy)-2-fluorophenyl)-1H-imidazol-4-yl)methyl)-2-fluorophenyl)propanoic acid]	B (B: 5-10° C.)
CC(O)(c1cccc(CCC(=O)O)c1)c1csc(-c2cc(Oc3c(F)cc4[nH]ccc4c3S(C)(=O)=O)ccc2F)n1 (stereo not shown) [Example 88, 3-(3-(1-(2-(2-Fluoro-5-((6-fluoro-4-(methylsulfonyl)-1H-indol-5-yl)oxy)phenyl)thiazol-4-yl)-1-hydroxyethyl)phenyl)propanoic acid]	B (B: 5-10° C.)
Cc1c(Oc2ccc(F)c(-c3nc(C(C)(C)c4cccc(CCC(=O)O)c4F)c[nH]3)c2)c(F)c(F)c2[nH]ccc12 [Example 158, 3-(3-(2-(2-(5-((6,7-difluoro-4-methyl-1H-indol-5-yl)oxy)-2-fluorophenyl)-1H-imidazol-4-yl)propan-2-yl)-2-fluorophenyl)propanoic acid]	B (B: 5-10° C.)
[2H]c1c[nH]c2c(F)c(F)c(Oc3ccc(F)c(-c4nc(C(C#N)(c5cc(F)cc(CCC(=O)O)c5)C([2H])([2H])[2H])c[nH]4)c3)c(F)c12 (single isomer, unassigned) [Example 67A, 3-(3-(1-cyano-1-(2-(2-fluoro-5-((4,6,7-trifluoro-1H-indol-5-yl-3-d)oxy)phenyl)-1H-imidazol-4-yl)ethyl-2,2,2-d3)-5-fluorophenyl)propanoic acid]	B (B: 5-10° C.)
CC(O)(c1cccc(CCC(=O)O)c1)c1cnc(-c2cc(Oc3cc(F)c4[nH]ccc4c3)ccc2F)[nH]1 (stereo not shown) [Example 196, 3-(3-(1-(2-(2-fluoro-5-((7-fluoro-1H-indol-5-yl)oxy)phenyl)-1H-imidazol-5-yl)-1-hydroxyethyl)phenyl) propanoic acid]	B (B: 5-10° C.)
O=C(O)CSc1cccc(Cc2nnc(-c3cccc(Oc4c(F)cc5[nH]ccc5c4F)c3)[nH]2)c1 [Example 261, 2-((3-((5-(3-((4,6-Difluoro-1H-indol-5-yl)oxy)phenyl)-4H-1,2,4-triazol-3-yl)methyl)phenyl)thio)acetic acid]	C (C: ≤5° C.)
CC(C#N)(c1cccc(CCC(=O)O)c1)c1cnc(-c2cc(Oc3c(F)c(F)c4[nH]ccc4c3S(C)(=O)=O)ccc2F)[nH]1 (stereo not shown) [Example 49, 3-(3-(1-Cyano-1-(2-(5-((6,7-difluoro-4-(methylsulfonyl)-1H-indol-5-yl)oxy)-2-fluorophenyl)-1H-imidazol-5-yl)ethyl)phenyl)propanoic acid]	A (A: T ≥ 10° C.)
O=C(O)CCc1cccc(C2(c3csc(-c4cccc(Oc5c(F)cc6[nH]ccc6c5F)c4)n3)CCOCC2)c1 [Example 95, 3-(3-(4-(2-(3-((4,6-difluoro-1H-indol-5-yl)oxy)phenyl)thiazol-4-yl)tetrahydro-2H-pyran-4-yl)phenyl)propanoic acid]	B (B: 5-10° C.)
Cc1c(Oc2ccc(F)c(-c3ncc(C(C)(C#N)c4cccc(CCC(=O)O)c4)[nH]3)c2)c(F)c(F)c2[nH]cc(Cl)c12 (stereo not shown) [Example 57, 3-(3-(1-(2-(5-((3-chloro-6,7-difluoro-4-methyl-1H-indol-5-yl)oxy)-2-fluorophenyl)-1H-imidazol-5-yl)-1-cyanoethyl)phenyl)propanoic acid]	B (B: 5-10° C.)

Reference: patent US20240279220A1, “INDOLE COMPOUNDS AND METHODS OF USE” (Genzyme Corporation, priority 2021, published 2024)
